Consider one compound from US11096885B2, “Composition for enhancing skin elasticity or improving skin wrinkles comprising ginseng cell lysate” (AMOREPACIFIC CORPORATION, priority 2018, dated 2021).

The test system of the assay is MMP-1. Put plainly: MMP-1 ELISA assay: inhibition of MMP-1 production in UVB-irradiated human skin fibroblasts. It is filed as cell-based. The settings on record: HS68 cells; for MMP-1 (%): untreated control = 100, UVB group = 463.00. Here is the method:
The MMP-1 ELISA assay was performed to confirm the effect of the composition of Example 1 and Comparative Example 1 on the inhibition of MMP-1 production, which is a skin tissue degrading enzyme, in UVB-irradiated human skin fibroblasts.
Specifically, HS68 cells, which are human skin fibroblasts, were seeded in a 48-well plate at a concentration of 2×10^4 cells/well, and then cultured in a DMEM medium (WelGene) containing 10% fetal bovine serum (FBS, WelGene) and 1% penicillin/streptomycin under a condition of 37° C. and 5% CO2. Then, the medium was removed and washed with DPBS (Dulbecco's Phosphate-Buffered Saline). Then, the cells from Example 1 and Comparative Example 1 diluted by concentration (125 ppm, 250 ppm, 500 ppm) in a DMEM medium containing no fetal bovine serum (FBS) and pretreated for 6 hours. Then, the medium was removed and was filled with 100 μl of DPBS, and then was irradiated at UVB 30 mJ/cm^2. The cells from Example 1 and Comparative Example 1 were diluted by concentration (250 ppm, 500 ppm) in a DMEM medium containing no fetal bovine serum (FBS), treated and cultured for 48 hours. After collecting the medium of the cultured cells, the amount of MMP-1 secretion was measured using a human MMP-1 ELISA kit (R&D Systems), and the absorbance was measured at 450 nm using an ELISA reader (Infinite M200Pro, Tecan). The cells attached to the bottom of the plate were washed with DPBS, lysed with 1N NaOH, and the amount of protein was measured using a BCA assay (Pierce® BCA protein assay kit, Thermo Scientific). The amount of MMP-1 secretion per certain protein was corrected and expressed as a percentage (%). As a positive control group, 1 μM and 10 μM of retinoic acid (RA) were used. Statistical significance between samples was used by the student's t-test and was analyzed to be statistically significant when the p-value was 0.05 or less (* P<0.05, ** p<0.01, *** p<0.001).
A general note: An ELISA detects its analyte on a solid surface through an enzyme-linked reagent.

Consider `CC1=C(/C=C/C(C)=C/C=C/C(C)=C/C(=O)O)C(C)(C)CCC1` [RA, retinoic acid], for which, under “UVB 30 mJ/cm^2, 1 μM”, the “reduction of MMP-1 secretion as compared to the UVB irradiation group” value was 111.06% and the “MMP-1 (%)” value is 351.95 ± 22.95%. Also, under “UVB 30 mJ/cm^2, 10 μM”, the “reduction of MMP-1 secretion as compared to the UVB irradiation group” value is given as 239.71% and the “MMP-1 (%)” value is reported as 223.29 ± 114.85%.
